From ChEMBL document CHEMBL5465560, “Selectivity Literature for EUbOPEN Chemogenomic Library” (2024)
One block for each compound: values may come before it.

Columns and labels:
[1] = target: Serine/threonine-protein kinase 33 (Homo sapiens) (UniProt Q9BYT3); assay: Selectivity interaction (LanthaScreen Eu Kinase Binding Assay) EUB0001632a STK33; conditions: at 10 µM
[2] = target: T1, Non-receptor tyrosine-protein kinase TNK1 (Homo sapiens) (UniProt Q13470); assay: Selectivity interaction (KinomeScan (DiscoverX)) EUB0000666a TNK1; conditions: at 10 µM
T1 sequence (whole entry): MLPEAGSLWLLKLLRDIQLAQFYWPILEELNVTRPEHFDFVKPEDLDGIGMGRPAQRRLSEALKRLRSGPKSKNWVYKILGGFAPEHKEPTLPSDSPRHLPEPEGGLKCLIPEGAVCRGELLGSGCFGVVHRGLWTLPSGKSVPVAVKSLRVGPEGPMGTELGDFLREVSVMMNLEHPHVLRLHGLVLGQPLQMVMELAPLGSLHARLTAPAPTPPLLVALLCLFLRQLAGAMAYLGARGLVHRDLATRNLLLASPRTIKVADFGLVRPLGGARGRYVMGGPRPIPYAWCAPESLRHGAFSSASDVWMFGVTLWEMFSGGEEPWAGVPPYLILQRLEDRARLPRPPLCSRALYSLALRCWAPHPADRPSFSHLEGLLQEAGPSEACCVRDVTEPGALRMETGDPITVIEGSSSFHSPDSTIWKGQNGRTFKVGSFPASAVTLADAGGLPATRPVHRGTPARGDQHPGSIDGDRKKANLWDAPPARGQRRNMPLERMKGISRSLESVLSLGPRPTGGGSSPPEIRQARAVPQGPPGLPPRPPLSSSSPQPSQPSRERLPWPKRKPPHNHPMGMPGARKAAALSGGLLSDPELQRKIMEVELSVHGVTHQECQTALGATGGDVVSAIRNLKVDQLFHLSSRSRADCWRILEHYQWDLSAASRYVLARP

[3] = target: Casein kinase I isoform delta (Homo sapiens, UniProt P48730); assay: Selectivity interaction (Kinase panel (literature)) EUB0001199aCl CSNK1D; conditions: at 1 µM
[4] = target: T2, Muscle, skeletal receptor tyrosine-protein kinase (Homo sapiens) (UniProt O15146); assay: Selectivity interaction (Upstate Kinase Profiler service (Millipore)) EUB0000056c MUSK; conditions: at 1 µM
T2 sequence (whole entry): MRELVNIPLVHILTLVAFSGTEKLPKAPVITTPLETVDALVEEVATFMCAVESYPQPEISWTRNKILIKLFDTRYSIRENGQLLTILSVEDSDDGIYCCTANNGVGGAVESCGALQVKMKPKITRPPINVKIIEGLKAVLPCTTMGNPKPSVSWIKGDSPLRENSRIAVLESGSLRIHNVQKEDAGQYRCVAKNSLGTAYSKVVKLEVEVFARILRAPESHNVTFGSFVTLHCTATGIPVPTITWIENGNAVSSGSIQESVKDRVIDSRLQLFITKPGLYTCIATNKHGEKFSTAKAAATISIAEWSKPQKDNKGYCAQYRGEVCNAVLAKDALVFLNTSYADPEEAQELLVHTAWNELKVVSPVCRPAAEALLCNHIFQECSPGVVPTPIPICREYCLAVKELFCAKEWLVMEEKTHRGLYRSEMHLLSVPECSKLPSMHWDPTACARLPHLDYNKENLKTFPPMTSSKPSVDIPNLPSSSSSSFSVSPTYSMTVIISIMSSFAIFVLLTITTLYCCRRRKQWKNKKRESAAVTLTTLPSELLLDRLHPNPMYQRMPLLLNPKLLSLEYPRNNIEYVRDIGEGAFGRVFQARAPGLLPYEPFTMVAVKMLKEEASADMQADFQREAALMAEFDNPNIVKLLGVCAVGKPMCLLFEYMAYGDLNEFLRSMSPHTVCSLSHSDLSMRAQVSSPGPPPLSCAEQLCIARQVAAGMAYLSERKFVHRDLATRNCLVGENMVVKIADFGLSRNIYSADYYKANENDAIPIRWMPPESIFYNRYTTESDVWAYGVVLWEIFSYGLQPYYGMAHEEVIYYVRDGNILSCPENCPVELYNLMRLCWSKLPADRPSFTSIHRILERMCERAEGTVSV

[5] = target: Serine/threonine-protein kinase MRCK beta (Homo sapiens) (UniProt Q9Y5S2); assay: Selectivity interaction (ProQinase) EUB0000171b CDC42BPB
[6] = target: Serine/threonine-protein kinase MARK1 (Homo sapiens) (UniProt Q9P0L2); conditions: at 10 µM
[7] = target: Homeodomain-interacting protein kinase 4 (Homo sapiens, UniProt Q8NE63); assay: Selectivity interaction (Enzymatic assay (Eurofins)) EUB0001049a HIPK4
[8] = target: Tyrosine-protein kinase Fes/Fps (Homo sapiens) (UniProt P07332); assay: Selectivity interaction (KinomeScan (DiscoverX)) EUB0000045b FES
[9] = target: Homeodomain-interacting protein kinase 3 (Homo sapiens, UniProt Q9H422); assay: Selectivity interaction (KinomeScan (DiscoverX)) EUB0001079a HIPK3; conditions: at 1 µM
[10] = target: Phosphatidylinositol 4,5-bisphosphate 3-kinase catalytic subunit beta isoform (Homo sapiens) (UniProt P42338); assay: Selectivity interaction (Kinase panel (KiNativ target engagement assay in Jurkat cells)) EUB0001635a PIK3CB; type: cell-based; conditions: Selectivity number of off-targets 0.0, Selectivity number of targets 233.0, Source Knowledge https://www.sciencedirect.com/science/article/pii/S2451945619300674?via%3Dihub, at 1 µM
[11] = target: Mitogen-activated protein kinase 11 (Homo sapiens) (UniProt Q15759); assay: Selectivity interaction (KinomeScan (DiscoverX)) EUB0000092b MAPK11; conditions: at 10 µM
[12] = target: T3, Serine/threonine-protein kinase ICK (Homo sapiens) (UniProt Q9UPZ9); assay: Selectivity interaction (KinomeScan (DiscoverX)) EUB0000618a ICK; conditions: at 10 µM
T3 sequence (whole entry): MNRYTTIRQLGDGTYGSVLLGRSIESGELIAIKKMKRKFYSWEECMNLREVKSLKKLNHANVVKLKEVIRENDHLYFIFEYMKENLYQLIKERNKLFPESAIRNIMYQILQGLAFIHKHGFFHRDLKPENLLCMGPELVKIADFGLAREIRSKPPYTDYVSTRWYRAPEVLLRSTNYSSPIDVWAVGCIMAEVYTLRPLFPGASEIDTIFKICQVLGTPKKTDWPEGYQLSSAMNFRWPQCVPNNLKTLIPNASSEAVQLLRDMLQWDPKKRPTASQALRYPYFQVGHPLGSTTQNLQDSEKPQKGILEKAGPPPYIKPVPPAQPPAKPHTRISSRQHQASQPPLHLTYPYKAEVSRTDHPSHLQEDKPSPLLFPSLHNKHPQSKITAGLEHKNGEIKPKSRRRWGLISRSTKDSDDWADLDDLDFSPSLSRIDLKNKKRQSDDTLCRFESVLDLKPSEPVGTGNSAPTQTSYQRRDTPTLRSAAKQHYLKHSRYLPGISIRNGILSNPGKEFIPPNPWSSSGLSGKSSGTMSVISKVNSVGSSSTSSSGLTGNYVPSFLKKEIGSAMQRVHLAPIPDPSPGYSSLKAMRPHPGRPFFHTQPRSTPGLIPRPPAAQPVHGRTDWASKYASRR

Tyrosine-protein kinase Fes/Fps (Homo sapiens), sequence (P07332 whole entry): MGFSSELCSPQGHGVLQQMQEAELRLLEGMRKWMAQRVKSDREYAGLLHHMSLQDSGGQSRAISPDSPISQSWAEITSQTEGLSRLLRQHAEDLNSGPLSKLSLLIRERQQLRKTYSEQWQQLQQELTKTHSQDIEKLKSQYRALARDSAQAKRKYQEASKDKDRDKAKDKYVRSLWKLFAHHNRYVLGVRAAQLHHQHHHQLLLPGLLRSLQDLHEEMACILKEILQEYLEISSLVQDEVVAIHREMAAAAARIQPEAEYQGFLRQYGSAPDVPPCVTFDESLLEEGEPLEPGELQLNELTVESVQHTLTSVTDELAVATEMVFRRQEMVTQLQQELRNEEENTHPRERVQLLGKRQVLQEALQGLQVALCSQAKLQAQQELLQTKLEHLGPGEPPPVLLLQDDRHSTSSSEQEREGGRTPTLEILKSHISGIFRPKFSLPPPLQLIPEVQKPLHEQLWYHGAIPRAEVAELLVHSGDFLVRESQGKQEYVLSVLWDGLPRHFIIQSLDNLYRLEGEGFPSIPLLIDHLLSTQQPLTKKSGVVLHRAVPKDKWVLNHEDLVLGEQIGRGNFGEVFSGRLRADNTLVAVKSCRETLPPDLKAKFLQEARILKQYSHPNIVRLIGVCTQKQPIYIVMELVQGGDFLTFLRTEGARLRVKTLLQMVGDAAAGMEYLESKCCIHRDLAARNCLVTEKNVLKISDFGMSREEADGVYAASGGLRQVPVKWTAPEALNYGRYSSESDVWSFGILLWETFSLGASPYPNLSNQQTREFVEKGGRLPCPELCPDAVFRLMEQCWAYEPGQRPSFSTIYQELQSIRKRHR
Serine/threonine-protein kinase MRCK beta (Homo sapiens), sequence (Q9Y5S2 whole entry): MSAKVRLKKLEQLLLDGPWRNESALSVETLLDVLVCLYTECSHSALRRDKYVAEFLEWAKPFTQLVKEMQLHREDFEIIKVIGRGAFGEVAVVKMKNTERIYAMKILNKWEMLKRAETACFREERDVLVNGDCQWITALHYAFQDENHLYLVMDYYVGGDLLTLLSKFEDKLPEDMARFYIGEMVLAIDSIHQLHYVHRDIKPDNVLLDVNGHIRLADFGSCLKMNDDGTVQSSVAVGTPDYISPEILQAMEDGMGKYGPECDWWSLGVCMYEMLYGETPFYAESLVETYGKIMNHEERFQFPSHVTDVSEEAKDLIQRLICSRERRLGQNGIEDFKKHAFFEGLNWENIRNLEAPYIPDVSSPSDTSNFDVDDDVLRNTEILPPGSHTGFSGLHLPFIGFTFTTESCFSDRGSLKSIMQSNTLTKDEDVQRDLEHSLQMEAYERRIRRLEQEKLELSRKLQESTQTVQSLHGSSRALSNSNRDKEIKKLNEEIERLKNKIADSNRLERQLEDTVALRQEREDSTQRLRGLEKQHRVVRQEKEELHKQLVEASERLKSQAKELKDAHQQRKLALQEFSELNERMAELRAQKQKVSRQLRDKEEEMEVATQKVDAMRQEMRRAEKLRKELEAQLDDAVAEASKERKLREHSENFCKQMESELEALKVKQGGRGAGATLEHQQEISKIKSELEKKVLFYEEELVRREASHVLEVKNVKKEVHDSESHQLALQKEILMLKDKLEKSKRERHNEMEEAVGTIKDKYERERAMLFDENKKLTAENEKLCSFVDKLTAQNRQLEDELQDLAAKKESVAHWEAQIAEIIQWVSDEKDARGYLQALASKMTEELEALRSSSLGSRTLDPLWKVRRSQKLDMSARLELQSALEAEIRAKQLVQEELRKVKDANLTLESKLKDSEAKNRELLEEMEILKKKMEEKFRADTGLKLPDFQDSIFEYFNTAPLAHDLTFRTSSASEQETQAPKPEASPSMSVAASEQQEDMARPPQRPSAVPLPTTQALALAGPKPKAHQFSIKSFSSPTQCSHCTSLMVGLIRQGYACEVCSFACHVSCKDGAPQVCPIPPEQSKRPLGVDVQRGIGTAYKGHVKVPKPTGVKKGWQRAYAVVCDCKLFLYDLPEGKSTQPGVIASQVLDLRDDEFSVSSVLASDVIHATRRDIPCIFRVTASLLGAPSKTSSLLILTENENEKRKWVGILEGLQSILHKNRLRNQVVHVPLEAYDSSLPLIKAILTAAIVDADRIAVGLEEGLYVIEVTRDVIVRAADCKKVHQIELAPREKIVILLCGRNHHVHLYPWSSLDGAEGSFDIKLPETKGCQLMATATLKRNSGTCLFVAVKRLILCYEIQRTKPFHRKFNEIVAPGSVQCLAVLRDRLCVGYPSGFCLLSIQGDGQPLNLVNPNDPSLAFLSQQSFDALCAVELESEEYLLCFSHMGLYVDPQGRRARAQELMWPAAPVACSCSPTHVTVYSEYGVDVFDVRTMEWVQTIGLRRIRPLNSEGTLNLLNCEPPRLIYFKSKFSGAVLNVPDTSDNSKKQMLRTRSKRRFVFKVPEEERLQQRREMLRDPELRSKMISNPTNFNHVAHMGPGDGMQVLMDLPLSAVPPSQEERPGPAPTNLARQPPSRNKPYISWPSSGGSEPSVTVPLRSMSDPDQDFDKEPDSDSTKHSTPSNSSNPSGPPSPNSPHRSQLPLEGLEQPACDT
Phosphatidylinositol 4,5-bisphosphate 3-kinase catalytic subunit beta isoform (Homo sapiens), sequence (P42338 whole entry, looked up, canonical isoform): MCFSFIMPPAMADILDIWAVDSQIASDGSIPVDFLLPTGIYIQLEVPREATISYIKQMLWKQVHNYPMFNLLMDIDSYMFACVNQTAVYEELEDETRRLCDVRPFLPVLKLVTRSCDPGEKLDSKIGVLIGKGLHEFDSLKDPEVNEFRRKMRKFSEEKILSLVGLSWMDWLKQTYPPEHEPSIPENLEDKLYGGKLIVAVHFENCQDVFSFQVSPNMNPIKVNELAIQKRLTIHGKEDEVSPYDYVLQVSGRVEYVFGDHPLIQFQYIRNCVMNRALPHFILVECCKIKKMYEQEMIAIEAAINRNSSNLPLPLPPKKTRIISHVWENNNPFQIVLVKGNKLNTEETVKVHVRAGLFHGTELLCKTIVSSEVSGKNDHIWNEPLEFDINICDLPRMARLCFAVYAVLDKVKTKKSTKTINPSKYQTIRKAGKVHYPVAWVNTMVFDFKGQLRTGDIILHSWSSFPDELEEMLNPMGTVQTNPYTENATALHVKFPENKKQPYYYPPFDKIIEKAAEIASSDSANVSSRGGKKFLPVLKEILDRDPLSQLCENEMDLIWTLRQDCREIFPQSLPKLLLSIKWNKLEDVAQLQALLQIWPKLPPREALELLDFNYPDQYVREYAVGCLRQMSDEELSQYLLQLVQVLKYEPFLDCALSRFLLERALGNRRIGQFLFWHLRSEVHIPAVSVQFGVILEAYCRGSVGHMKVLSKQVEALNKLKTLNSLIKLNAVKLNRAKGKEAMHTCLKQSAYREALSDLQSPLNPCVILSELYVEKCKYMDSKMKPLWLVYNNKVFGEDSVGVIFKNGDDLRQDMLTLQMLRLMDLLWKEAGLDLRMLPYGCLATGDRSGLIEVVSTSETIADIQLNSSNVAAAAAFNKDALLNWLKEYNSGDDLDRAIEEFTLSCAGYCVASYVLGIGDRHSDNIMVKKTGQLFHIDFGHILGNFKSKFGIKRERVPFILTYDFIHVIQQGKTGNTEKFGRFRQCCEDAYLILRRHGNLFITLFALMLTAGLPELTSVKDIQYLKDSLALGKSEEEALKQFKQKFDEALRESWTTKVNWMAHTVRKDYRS
Casein kinase I isoform delta, sequence (P48730 whole entry, looked up, canonical isoform): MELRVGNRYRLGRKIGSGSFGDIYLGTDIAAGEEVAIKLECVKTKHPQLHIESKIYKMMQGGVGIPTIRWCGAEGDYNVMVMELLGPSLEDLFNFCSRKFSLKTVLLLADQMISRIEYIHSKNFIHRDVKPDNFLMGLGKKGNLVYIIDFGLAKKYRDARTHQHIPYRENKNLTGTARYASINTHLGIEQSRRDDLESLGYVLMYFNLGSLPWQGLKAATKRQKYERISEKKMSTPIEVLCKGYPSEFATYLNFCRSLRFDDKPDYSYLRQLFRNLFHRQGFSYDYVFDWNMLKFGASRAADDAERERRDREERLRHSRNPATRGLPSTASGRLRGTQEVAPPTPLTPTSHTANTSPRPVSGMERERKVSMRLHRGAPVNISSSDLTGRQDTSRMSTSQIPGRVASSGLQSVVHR
Serine/threonine-protein kinase MARK1 (Homo sapiens), sequence (Q9P0L2 whole entry, looked up): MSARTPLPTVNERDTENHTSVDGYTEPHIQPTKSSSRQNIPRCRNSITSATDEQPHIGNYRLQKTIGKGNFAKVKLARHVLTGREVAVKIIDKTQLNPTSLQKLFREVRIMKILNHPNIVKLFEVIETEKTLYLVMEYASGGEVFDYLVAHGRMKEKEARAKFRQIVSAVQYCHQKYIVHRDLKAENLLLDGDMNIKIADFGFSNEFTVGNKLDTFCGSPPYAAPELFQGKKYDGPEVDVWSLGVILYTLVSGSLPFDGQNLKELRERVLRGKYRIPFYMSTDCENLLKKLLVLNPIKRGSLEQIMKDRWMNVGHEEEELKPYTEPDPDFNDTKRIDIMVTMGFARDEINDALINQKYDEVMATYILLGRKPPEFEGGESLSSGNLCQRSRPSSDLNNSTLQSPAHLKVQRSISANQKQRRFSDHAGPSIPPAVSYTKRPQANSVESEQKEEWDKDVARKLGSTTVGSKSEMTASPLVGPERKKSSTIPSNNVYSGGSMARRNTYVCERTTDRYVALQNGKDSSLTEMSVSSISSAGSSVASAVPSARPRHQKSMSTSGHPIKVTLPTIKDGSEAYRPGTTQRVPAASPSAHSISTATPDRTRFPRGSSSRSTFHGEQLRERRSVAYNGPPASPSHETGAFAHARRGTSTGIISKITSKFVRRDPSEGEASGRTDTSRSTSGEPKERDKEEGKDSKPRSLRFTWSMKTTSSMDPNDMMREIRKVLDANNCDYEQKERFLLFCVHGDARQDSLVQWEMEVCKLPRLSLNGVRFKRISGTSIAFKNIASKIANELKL

% of inhibition [1]: -17.6%
Compound: Cn1cc(-n2cnc3c(NCc4nc5cc(Cl)c(Cl)cc5[nH]4)nc(N4CCOCC4)nc32)cn1

Compound: O=C(NOC[C@H](O)CO)c1ccc(F)c(F)c1Nc1ccc(I)cc1F
% of control [2]: 68%

% of inhibition [3]: 94%
Compound: CN1Cc2nccc(-c3cn(C)nc3-c3ccc(F)cc3)c2C1=O

% of inhibition [4]: -7%
Compound: Cc1ccc(-c2ccc3c(ccc4sc5c(c43)NC[C@@H](C)NC5=O)n2)cn1

% of control ([5]; at 1 µM): 89%
% of control ([5]; at 5 µM): 82%
Compound: C=CC(=O)Nc1cccc(C(=O)Nc2ccc(Nc3cc(-c4[nH]c(SC)nc4C)ccn3)cc2)c1

Compound: COCC(=O)NC/C=C/c1ccc2ncnc(Nc3ccc(Oc4ccc(C)nc4)c(C)c3)c2c1 [CP-724714]
% of control [6]: 100%

Compound: COc1cc(Nc2nc(C)cc(-c3cnn4nc(OC)ccc34)n2)cc(C(F)(F)F)c1
IC50 [7]: > 10 µM

Compound: C=CC(=O)Nc1cc(-n2c(=O)ccc3cnc4ccc(-c5ccc(NS(C)(=O)=O)cc5)cc4c32)ccc1C
% of control ([8]; at 1 µM): 92%
% of control ([8]; at 10 µM): 100%

Compound: Nc1cnc(N2CCc3cc(S(=O)(=O)Nc4c(F)cc(Cl)cc4F)cc(N4CCCC4=O)c32)nc1 [TP-020n]
% of control [9]: 100%

Compound: C=CC(=O)Nc1ccc(C(=O)Nc2[nH]nc3c2CN(C(=O)N[C@H](CN(C)C)c2ccccc2)C3(C)C)cc1
% of engagement [10]: -21.2%

Compound: CCC(=O)N1CCN(c2ccc(-n3c(=O)ccc4cnc5ccc(-c6cnc7ccccc7c6)cc5c43)cc2C(F)(F)F)CC1
% of control [11]: 53%

Compound: O[C@H]1CC[C@H](Nc2ncc3nc(Nc4c(F)cc(F)cc4F)n([C@H]4CCOC4)c3n2)CC1
% of control [12]: 100%
